Data as given in paper PMC12454639, “Direct disassembly of α-syn preformed fibrils into α-syn monomers by an all-D-peptide” (NPJ Parkinson's Disease, 2025).
Entries after “also recorded” stand apart in the source; their conditions may differ. Read-outs that look alike come from different tables or passages of the source. Square brackets hold non-standard residues; d marks the D form. Peptide text beside a SMILES is read from it.

Assays:
small α-syn PFF seeds = assay: Seeded ThT aggregation assay; format: biochemical; details: then 20 µM α-syn monomer, n = 3
Description: The Thioflavin T (ThT) assay is commonly used for the visualization of α-syn fibrilization, since the dye ThT is able to bind to the amyloidogenic cross-β-sheet proportions of fibril structures. Recombinant α-syn was thawed on ice and centrifuged for 30 min at 21,000 × g and 4 °C. The concentration of the supernatant was determined as described previously. Lyophilized D-peptides were thawed at RT for 1 h and dissolved in 500 µl PBS pH 7.4. After centrifugation for 30 min at 21,000 × g the supernatant concentration was determined by UV–vis using the corresponding extinction coefficient at A280. All ThT assay experiments were performed at 37 °C with 15 µM ThT and 0.05% sodium azide (w/v) in PBS pH 7.4 if not otherwise stated. ThT fluorescence was monitored with bottom optics at λex = 448 nm and λem = 482 nm in a fluorescence plate reader with orbital averaging on 3 mm (Clariostar or Polarstar Optima, BMG labtech, GE). Prior to measurement start, 120 µl sample solution was transferred to a non-binding 96-half area well plate with transparent flat bottom (Corning, USA). One borosilicate glass bead (d = 3.0 mm, Hilgenberg, GE) was added to each well for all de novo aggregation assays. For seeded aggregation assays, no bead was used, and samples were incubated under quiescent conditions. Wells that surrounded the sample wells were filled with the same volume of buffer to improve heat distribution. Experiments were performed with five replicates (n = 5) if not otherwise stated.
ThT assay was used for different purposes. […] Lag-time and t½ were calculated as described previously. […] Measurements were taken every 5 min (n = 3).
small α-syn PFF seeds were prepared as described previously with some modifications. First, insoluble PFF were produced by incubation of 300 µM recombinant α-syn in a LoBind reaction tube (Eppendorf GmbH, GE) with one borosilicate glass bead (d = 3.0 mm; Hilgenberg, DE) in 20 mM NaPi, pH 7.0, 150 mM NaCl, 0.05% (w/v) sodium azide for one week at 37 °C. The insoluble PFF were harvested by ultracentrifugation at 100,000 × g for 30 min at 4 °C, and the pellet was washed several times with 20 mM NaPi, pH 7.0, 150 mM NaCl. The monomer equivalent concentration was determined by measuring the α-syn concentration in the supernatant after the first centrifugation and subtracting it from the start concentration for fibrilization. […]
ThT fluorescence progression was measured in a 96-well non-binding half-area plate (Corning, USA) with a FLUOStar platereader (BMG labtech, GE) at λex = 448 nm and λem = 482 nm. […] 10 µM α-syn monomer was incubated with 5, 10 and 20 µM peptide at 37 °C, adding one borosilicate glass bead per well (d = 3.0 mm, Hilgenberg, GE) with continuous orbital shaking at 300 rpm in between reads. […]

PC12 cells = format: cell-based; details: for PC12 cell viability with PFF: 24 h
Description: PC12 cells (Leibniz Institute DSMZ, GE) were cultivated on collagen A-coated (Biochrom GmbH, GE) tissue culture flasks in RPMI 1640 medium supplemented with 5% fetal calf serum and 10% horse serum in a 95% humidified atmosphere with 5% CO2 at 37 °C. 10,000 cells per well in a volume of 100 µl were seeded on collagen A-coated 96-well plates (Thermo Fisher Scientific, USA) and were incubated for 24 h at 37 °C and 300 rpm in a thermo cycler. […] In addition, 15 µM of the peptides alone, cell media, buffer without peptides and 0.1% Triton X-100 (cytotoxic compound) served as controls. After further incubation in a 95% humidified atmosphere with 5% CO2 at 37 °C for 24 h, cell viability was measured using the Cell Proliferation Kit I (MTT) (Roche Applied Science, CH) according to the manufacturer’s protocol. The MTT formazan product was quantified by measuring the absorbance at 570 nm corrected by subtraction of the absorbance at 660 nm in a FLUOStar Optima plate reader (BMG Labtech, GE). All results were normalized to untreated cells grown in medium only. Test on significance was performed using one-way ANOVA with Bonferroni post hoc analysis (OriginPro 2020, OriginLab, USA; n = 4).
Test on significance was performed using one-way ANOVA with Bonferroni post hoc analysis: * […], *** p ≤ 0.01. Mean data are shown with ±SD (n = 4). While the cell viability was reduced by 50 % in the presence of 30 nM soluble small α-syn PFF alone, no toxic effect of the compounds on PC12 was observed. […] Thus, similar cell viability saving effects were found for SVD-1a using a 30-fold lower concentration.

[1] = biological target: T1, α-syn monomer (full-length) (Homo sapiens, UniProt P37840); assay: SPR single-cycle kinetics, peptide immobilized, α-syn as analyte; format: binding; details: for deviation from 1:1 model (additional binding mode): suggested from deviation of fits for later injections
T1 construct: made in house; host or cells: E. coli BL21(DE3), co-expressed with pNatB (N-terminal acetylation enzyme from Schizosaccharomyces pombe)
Description: The experiment was performed as an individual measurement. […] The non-referenced signal of the active and referenced surface is shown in Supplementary Fig. 7. […] Full-length α-syn was injected for 100 s at 30 µl/min in PBS 7.4 in a serial dilution ranging from 15 to 250 nM, followed by a dissociation time of 60 min. Y-axis scaling was adjusted to (A).
Measurements were performed using an 8K Biacore device (Cytiva, USA). Interactions were measured using single-cycle kinetics experiments. For all assays, the peptide compounds were immobilized as ligand on the sensor surface and recombinant α-syn was injected as analyte in the flow. […] Surface quenching was performed using 1 M ethanolamine, pH 8.3. The kinetic experiments were performed using a flow rate of 30 µl/min in PBS pH 7.4 if not otherwise stated. The surface was regenerated in between cycles using 30 s injections of 2 M Gua-HCl at 30 µl/min. Data evaluation was performed using Biacore Insight Evaluation Software v3.0 (Cytiva, USA).

Row | SMILES | inhibition of seeded aggregation (small α-syn PFF seeds; 50 nM small α-syn PFF pre-incubated 20 h with peptide, 37 °C quiescent) | PC12 cell viability with PFF (PC12 cells; 15 µM) [%] | deviation from 1:1 model (additional binding mode) [1] | effect on elongation rate (small α-syn PFF seeds; 5 µM peptide, 50 nM PFF pre-incubated 20 h) | inhibition of seeding (small α-syn PFF seeds; 20 µM or higher peptide (20 µM for SVD-1_scrambled+5r), 50 nM PFF pre-incubated 20 h) | fold lower concentration for similar cell viability saving effect vs SVD-1 (PC12 cells; 0.5 µM SVD-1a vs 15 µM SVD-1) | PC12 cell viability with PFF (PC12 cells; 0.5 µM) [%] | Kd [1] [nM] | koff ([1]; 1:1 Langmuir-based model, immobilized peptide, α-syn analyte, PBS pH 7.4, dissociation 60 or 30 min, individual measurement) [s⁻¹] | kon ([1]; 1:1 Langmuir-based model, immobilized peptide, α-syn analyte, PBS pH 7.4, individual measurement) [M⁻¹ s⁻¹] | sequence specificity of binding ([1]; comparison of SVD-1a and SVD-1a_scr.+5r)
1 | CC[C@@H](C)[C@@H](NC(=O)[C@@H](Cc1c[nH]cn1)NC(=O)[C@@H](CCC(=O)O)NC(=O)[C@@H](CCC(N)=O)NC(=O)[C@@H](Cc1c[nH]c2ccccc12)NC(=O)[C@@H](Cc1ccc(O)cc1)NC(=O)[C@H](NC(=O)[C@@H](CCC(=O)O)NC(=O)[C@@H](Cc1c[nH]cn1)NC(=O)[C@H](NC(=O)[C@H]1CCCN1C(=O)[C@@H](CCSC)NC(=O)[C@H](N)CCCCN)[C@H](C)O)[C@H](C)O)C(=O)N[C@H](Cc1c[nH]c2ccccc12)C(=O)N[C@H](Cc1c[nH]cn1)C(=O)N[C@H](C)C(N)=O [SVD-1] (H-[dK][dM][dP][dT][dH][dE][dT][dY][dW][dQ][dE][dH][dI][dW][dH][dA]-NH2) | significantly decelerate amyloid growth in the seeded environment; also recorded: inhibits elongation and secondary nucleation of α-syn | 89 | additional low-affinity binding mode in the higher nM range |  |  |  |  |  |  |  | 
2 | CC[C@@H](C)[C@@H](NC(=O)[C@@H](Cc1c[nH]cn1)NC(=O)[C@@H](CCC(=O)O)NC(=O)[C@@H](CCC(N)=O)NC(=O)[C@@H](Cc1c[nH]c2ccccc12)NC(=O)[C@@H](Cc1ccc(O)cc1)NC(=O)[C@H](NC(=O)[C@@H](CCC(=O)O)NC(=O)[C@@H](Cc1c[nH]cn1)NC(=O)[C@H](NC(=O)[C@H]1CCCN1C(=O)[C@@H](CC(C)C)NC(=O)[C@H](N)CCCNC(=N)N)[C@H](C)O)[C@H](C)O)C(=O)N[C@H](Cc1c[nH]c2ccccc12)C(=O)N[C@H](Cc1c[nH]cn1)C(=O)N[C@H](C)C(=O)N[C@H](CCCNC(=N)N)C(=O)N[C@H](CCCNC(=N)N)C(=O)N[C@H](CCCNC(=N)N)C(=O)N[C@H](CCCNC(=N)N)C(=O)N[C@H](CCCNC(=N)N)C(N)=O [SVD-1a] (H-[dR][dL][dP][dT][dH][dE][dT][dY][dW][dQ][dE][dH][dI][dW][dH][dA][dR][dR][dR][dR][dR]-NH2) |  |  | additional low-affinity binding mode in the higher nM range | a reduction of the elongation rate was observed | complete inhibition of the seeding capacity | 30 -fold | 82 | 0.1 | 3.13e-05 | 313000 | sequence-specific
